# Measured values from patent US20180305719A1, “Vectors For Integration Of DNA Into Genomes And Methods For Altering Gene Expression And Interrogating Gene Function” (The Board of Trustees of the University of Illinois, priority 2017, published 2018).
# What was measured:
# Type in all cases: cell-based, human
# HCT116 cells = test: Quantification of integration efficiency (colonies after antibiotic selection); settings: for Avg. Colonies: 450,000 cells transfected
# Description: HCT116 cells were transfected with individual RGNs targeting either CTTN exon 8 or HLA-DRA, as well as Cas9, one universal RGN, and either one or two transfer vectors with expression cassettes conferring resistance to puromycin or puromycin and hygromycin. A total of 450,000 cells were transfected using 100 ng of each plasmid. The transfection efficiency was ˜55% as determined by FACS following delivery of a control GFP expression plasmid. Three days post transfection, 90% of cells from each well were harvested and replated into 10 cm dishes for selection with the appropriate antibiotics. Cells with monoallelic modifications were selected with puromycin whereas cells with biallelic modifications were selected with puromycin and hygromycin. Media and antibiotics were replenished every three days. Visible colonies appeared after approximately after one week. The number of clones for each transfection was counted and integration efficiency was determined as the ratio of the number of clonal cells derived from each transfection relative to the number of alleles modified by each specific sgRNA, as measured in experimental control samples using the surveyor assay.
# Following selection in 10-cm plates with the appropriate antibiotic, total colonies were counted and divided by total cells transfected to obtain the overall editing efficiency of NAVI. This value was then adjusted to account for overall sgRNA editing efficiency, as measured by surveyor nuclease assay. This quantification was performed at 2 different loci using either a single or two antibiotics for selection.
# NEUROD1 [1] = test: Activation of native gene expression in 293T cells, qPCR; settings: for induction of NEUROD1: 200 ng/mL doxycycline, NAVIa-edited 293T; for increase in NEUROD1 gene expression: idpTV-edited cells
# Description: (§1) 293T and HCT116 cells were obtained from the American Tissue Collection Center (ATCC) and were maintained in DMEM supplemented with 10% fetal bovine serum and 1% penicillin/streptomycin at 37° C. with 5% CO2. 293T and HCT116 cells were transfected with Lipofectamine 2000 (Invitrogen) according to manufacturer's instructions. Transfection efficiencies were routinely higher than 80% for 293T cells and higher than 50% for HCT116 cells as determined by fluorescent microscopy following delivery of a control GFP expression plasmid. Induction of gene expression, unless otherwise noted, was carried out with 200 ng/mL doxycycline in DMEM prepared with 10% tetracycline-free FBS for 4 days.
# (§2) Cells were harvested and flash-frozen in liquid nitrogen prior to RNA-extraction using the RNeasy Plus RNA isolation kit (Qiagen) according to manufacturer's instructions. cDNA synthesis was carried out using the qScript cDNA Synthesis Kit (Quanta Biosciences) from 1 μg of RNA and reactions were performed as directed by the supplier. For RT-qPCR, SsoFast EvaGreen Supermix (Bio-Rad) was added to cDNA and primers targeting the gene of interest and GAPDH (Table 10). Following 30 s at 95° C., qPCR (5 s at 95° C., 20 s at 55° C., 40 total cycles) preceded melt-curve analysis of the product by the CFX Connect Real-Time System (Bio-Rad). Ct values were used to calculate changes in expression level, relative to GAPDH and control samples by the 2^−ΔΔCt method.
# In order to evaluate this gene activation architecture in the context of the human genome, three target genes were selected whose reported levels of activation utilizing CRISPRa are either high (ASCL1, ˜10^3-fold), medium (NEUROD1, ˜10^2-fold), or low (POU5F1, ˜10-fold). The primary sgRNAs targeting the genome were co-transfected into 293T cells with three plasmids containing (1) an expression cassette for active Cas9, (2) customized cspTV, cdpTV or idpTV, and (3) a universal secondary sgRNA. Following transfection, cells with integration of the TV were selected using puromycin and, in cells transfected with the idpTV, gene expression was induced with doxycycline. In parallel, one sgRNA or a mixture of 4 sgRNAs (previously validated for use with CRISPRa) were co-transfected into 293 Ts with dCas9-VPR for comparison of the NAVIa with CRISPRa. Gene expression using an individual sgRNA directing dCas9-VPR to target promoters was increased ˜10-fold for all targets tested but not statistically significant. Utilization of 4 sgRNAs simultaneously activated gene expression more effectively than 1 sgRNA (ASCL1: ˜1800-fold, NEUROD1: ˜2900-fold, POU5F:1 ˜90-fold). […] However, the idpTV (ASCL1: ˜7200-fold, NEUROD1: ˜76000-fold, POU5F1: ˜5370-fold) surpassed activation obtained using dCas9-VPR using 4 sgRNAs (FIG. 14B).
# NEUROD1 [2] = test: NEUROD1 expression by qPCR in HCT116 and MRC-5 cells
# Description: as §1, §2
# To further explore the trends we observed in 293T cells, NeuroD1 was targeted using the cdpTV in other cell lines.
# [3] = selection Puromycin + Hygromycin
Molecule,% Efficiency (adjusted by indel %) (HCT116 cells; selection Puromycin),% Efficiency (colonies/transfected cells) (HCT116 cells; selection Puromycin),% Efficiency (adjusted by indel %) (HCT116 cells; [3]),% Efficiency (colonies/transfected cells) (HCT116 cells; [3]),Avg. Colonies (HCT116 cells; [3]),Avg. Colonies (HCT116 cells; selection Puromycin),induction of NEUROD1 (NEUROD1 [1]; 12 h),induction of NEUROD1 (NEUROD1 [1]; 24 h),induction of NEUROD1 (NEUROD1 [1]; 48 h),induction of NEUROD1 (NEUROD1 [1]; 96 h),"increase in NEUROD1 gene expression (NEUROD1 [1]; doxycycline 2 ng/mL, 96 h)","increase in NEUROD1 gene expression (NEUROD1 [1]; doxycycline 2 μg/mL, 96 h)",ratio of gene expression between samples with and without doxycycline treatment (NEUROD1 [2]; heterozygous clones),ratio of gene expression between samples with and without doxycycline treatment (NEUROD1 [2]; homozygous clones),ratio of gene expression between samples with and without doxycycline treatment (NEUROD1 [2]; pooled cells)
"CTTN exon 8: sgRNA, protospacer GCGCTCTTGTCTACTCGGT, SEQ ID NO 8 (expressed or natural sequence)",12.00%,0.38%,5.00%,0.16%,725,1726,–,–,–,–,–,–,–,–,–
"HLA-DRA: sgRNA, protospacer GCTGTGCTGATGAGCGCTC, SEQ ID NO 9 (expressed or natural sequence)",26.40%,0.58%,4.60%,0.10%,453,2610,–,–,–,–,–,–,–,–,–
C[C@H]1c2cccc(O)c2C(=O)C2=C(O)[C@]3(O)C(=O)C(C(N)=O)=C(O)[C@@H](N(C)C)[C@@H]3[C@@H](O)[C@@H]21 [doxycycline],–,–,–,–,–,–,~4000 fold,~5000 fold,~10000 fold,~15000 fold,~337 fold,~26015 fold,~426 fold,~1486 fold,~22 fold
